24 molecules from patent US20250154154A1 (Relay Binney Street, 2nd Floor, priority 2020, published 2025) can be followed below.

Some results are limits rather than exact numbers.

The test system of test [1] is phospho-S6RP (Ser 235/236) in RBE cells. Kind of test: Cellular Proliferation Protocol (cellular phospho-S6RP HTRF), RBE cells. The test is classed as cell-based. The conditions noted are these: 6 hours treatment, RBE or SNU-1079 cells, cell line not given. Here is the method: Cellular Proliferation Protocol
Cellular phospho-S6RP (Ser 235/236) was measured using a Fluorescence Resonance Energy Transfer (FRET) sandwich assay format (Cisbio HTRF Cat. No. 64RP6PEG). This format uses 2 different, labelled antibodies (Eu^3+-Cryptate donor and d2 acceptor) that positively modulate a specific signal in proportion to phospho-S6RP (Ser 235/236) directly in cells. RBE or SNU-1079 cells were cultivated in T-75 flasks at 37° C., 5% CO2, 95% relative humidity in RPMI 1640 medium with 10% FBS and 1% Penicillin/Streptomycin and detached with trypsin/EDTA at 80-90% confluency. Cells were then seeded in 40 μL volume per well in 384-well flat-bottom polystyrene microplates (Corning Cat. No. 3570) at a seeding density of 2000 cells/well for RBE and 3000 cells/well for SNU-1079 followed by 24 hour incubation at 37° C., 5% CO2, 95% relative humidity. On the next day, compounds were diluted to […] the indicated concentrations and 40 nL of these treatment compounds, along with DMSO vehicle control, were added to the cells (final concentration of compounds is then the indicated concentrations). Treatment was carried out for 6 hours at 37° C., 5% CO2, 95% relative humidity after which the plates were cooled to room temperature before aspirating the medium. Cells were then lysed on a shaker for 45 minutes at room temperature with 20 μL of 1× supplemented lysis buffer per well. After lysis, 5 μL of pre-mixed antibodies was added per well. Plates were covered with black sealing film and incubated overnight at room temperature on a shaker before being read on a PerkinElmer EnVision microplate reader. Percent activation was calculated relative to DMSO control and IC50 values were obtained from dose-response data fitted to a 4-parameter curve.
Background: TR-FRET usually uses a lanthanide donor and a delayed reading to cut background.

The next test concerns RBE cells. Description: Cell Viability Protocol (CellTiterGlo), RBE cells. The test is classed as cell-based. To be noted: RBE or SNU-1079 cells, 72 or 120 hour, cell line and time not given. The procedure, abridged: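 RBE cells plated at 1200/well in RPMI 1640 with 10% FBS, incubated 24 h, then dosed with compound from DMSO stocks and incubated 72 or 120 h at 37° C. CellTiterGlo luminescence normalised to DMSO control; IC50 from 4-parameter fit.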
In general terms: ATP-based viability assays read luminescence as a measure of living cells.

In another test the target is SRC (Homo sapiens, UniProt P12931). Description: SRC Biochemical Assay Protocol (microfluidic mobility shift assay, FLPeptide4 substrate). In a few lines:
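Recombinant SRC (0.26 nM) preincubated 30 min at RT with compound (0.0017–100 μM) and 1.5 μM FLPeptide4, then 50 μM ATP added; 90 min reaction in HEPES pH 7.4, 10 mM MgCl2, 1% DMSO, EDTA-quenched. Phosphopeptide quantified by microfluidic mobility shift; IC50 from 4-parameter logistic fit.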

SRC, sequence (P12931 whole entry, species assumed): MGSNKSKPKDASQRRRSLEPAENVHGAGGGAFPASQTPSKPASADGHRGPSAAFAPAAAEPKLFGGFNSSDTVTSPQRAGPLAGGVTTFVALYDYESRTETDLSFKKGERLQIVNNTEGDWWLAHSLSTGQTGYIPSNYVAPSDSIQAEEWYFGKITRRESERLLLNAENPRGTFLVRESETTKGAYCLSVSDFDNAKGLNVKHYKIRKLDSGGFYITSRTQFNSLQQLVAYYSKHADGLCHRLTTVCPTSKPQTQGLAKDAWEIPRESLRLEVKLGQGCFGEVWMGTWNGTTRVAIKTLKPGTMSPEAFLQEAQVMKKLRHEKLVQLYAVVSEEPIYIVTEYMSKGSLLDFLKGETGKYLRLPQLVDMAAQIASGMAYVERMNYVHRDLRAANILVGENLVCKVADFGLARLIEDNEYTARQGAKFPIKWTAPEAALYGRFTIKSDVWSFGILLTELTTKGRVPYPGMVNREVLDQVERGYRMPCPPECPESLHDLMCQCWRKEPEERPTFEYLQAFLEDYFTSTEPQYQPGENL

One may read the IC50 as the concentration needed to halve the response being measured. Turning to `C=CC(=O)N1CCC(C#Cc2c(-c3ccc(Oc4ccccc4)cc3)c3c(N)ncnc3n2C(C)c2noc(C)n2)CC1` (stereo not drawn) [Example I-50], the IC50 (in test [1] (6 h); in the test with RBE cells; on SRC) was 10 to 1000 nM throughout.
As for `C=CC(=O)N1CCN(C2CC(C#Cc3c(-c4ccc(Oc5ccccc5)cc4)c4c(N)ncnc4n3C)C2)C(=O)C1` (stereo not drawn) [II-166, 4-acryloyl-1-(3-((4-amino-7-methyl-5-(4-phenoxyphenyl)-7H-pyrrolo[2,3-d]pyrimidin-6-yl)ethynyl)cyclobutyl) piperazin-2-one], the IC50 (in test [1] (6 h); in the test on RBE cells; at SRC) was ≤ 10 nM each time.
Consider `C=CC(=O)N1CCC(N2CC(C#Cc3c(-c4ccc(Cl)c(CO)c4)c4c(N)ncnc4n3C)C2)CC1` [II-90], for which the IC50 (in test [1]; in the test on RBE cells; on SRC) was 10 to 1000 nM each time.
Regarding `CC(C)n1c(C#CC2CCN(C3CN(C(=O)/C=C/CN(C)C)C3)CC2)c(-c2ccc(Oc3ccccc3)cc2)c2c(N)ncnc21` [Example I-54], the IC50 was ≤ 10 nM in test [1] (6 h), 10 to 1000 nM with RBE cells and ≤ 10 nM at SRC.
Consider `C=CC(=O)N1C[C@@H]2[C@@H](C#Cc3c(-c4ccc(Oc5cccc(C)n5)cc4OC)c4c(N)ncnc4n3CCCO)[C@@H]2C1` [II-49], for which the IC50 (in test [1]; in the test on RBE cells; at SRC) was 10 to 1000 nM throughout.
In the case of `C=CC(=O)N1CCC(N2CC(C#Cc3c(-c4ccc(Oc5cccc(C)n5)c(OC)c4)c4c(N)nccc4n3C)C2)CC1` [II-80], the results for the IC50 (in test [1]; with RBE cells; at SRC) were 1000 to 10000 nM, 10 to 1000 nM and 1000 to 10000 nM, respectively.
As for `C=CC(=O)N1CCC(N2CC(C#Cc3c(-c4ccc5c(c4)OCCO5)c4c(N)ncnc4n3C)C2)CC1` [II-104], the IC50 (in test [1]; with RBE cells; on SRC) was 10 to 1000 nM throughout.
Take `C=CC(=O)N1CC[C@@H](N2CC(C#Cc3c(-c4ccc(OC5(C)CC5)cc4)c4c(N)ncnc4n3C)C2)[C@@H](O)C1` [II-16]: the results for the IC50 (in test [1] (6 h); in the test on RBE cells; on SRC) were 10 to 1000 nM, 10 to 1000 nM and 1000 to 10000 nM, respectively.
For the molecule `C=CC(=O)N1CC[C@H](N2CC(F)(C#Cc3c(-c4ccc(Oc5cccc(C)n5)cc4)c4c(N)ncnc4n3C)C2)[C@@H](O)C1` [II-220, 1-((3S,4S)-4-(3-((4-amino-7-methyl-5-(4-((6-methylpyridin-2-yl)oxy)phenyl)-7H-pyrrolo[2,3-d]pyrimidin-6-yl)ethynyl)-3-fluoroazetidin-1-yl)-3-hydroxypiperidin-1-yl)prop-2-en-1-one], the IC50 (in test [1] (6 h); with RBE cells; at SRC) was 10 to 1000 nM in each case.
Turning to `C=CC(=O)N1CC[C@@H](N2CC(C#Cc3c(-c4ccc5c(c4)OCCO5)c4c(N)ncnc4n3C)C2)[C@@H](O)C1` [II-74], the IC50 (in test [1]; with RBE cells; on SRC) was 10 to 1000 nM each time.
With `C=CC(=O)N1CC[C@@H](N2CC(C#Cc3c(-c4ccc(Oc5cccc(C)n5)c(OC)c4)c4c(N)ncnc4n3C)C2)[C@H](O)C1` [II-217, 1-((3R,4R)-4-(3-((4-amino-5-(3-methoxy-4-((6-methylpyridin-2-yl)oxy)phenyl)-7-methyl-7H-pyrrolo[2,3-d]pyrimidin-6-yl)ethynyl)azetidin-1-yl)-3-hydroxypiperidin-1-yl)prop-2-en-1-one], the IC50 (in test [1] (6 h); with RBE cells; on SRC) was 10 to 1000 nM in each case.
Take `C=CC(=O)N1CC[C@@H](N2CC(C#Cc3c(-c4ccc(C5CC5)c(OC)c4)c4c(N)ncnc4n3C)C2)[C@@H](O)C1` [II-67]: the IC50 (in test [1]; with RBE cells; at SRC) was 10 to 1000 nM in each case.
As for `C=CC(=O)N1CCC(N2CC(F)(C#Cc3c(-c4ccc(Oc5ccccc5)cc4)c4c(N)ncnc4n3C)C2)CC1` [II-176, 1-(4-(3-((4-amino-7-methyl-5-(4-phenoxyphenyl)-7H-pyrrolo[2,3-d]pyrimidin-6-yl)ethynyl)-3-fluoroazetidin-1-yl)piperidin-1-yl)prop-2-en-1-one], the results for the IC50 (in test [1] (6 h); in the test with RBE cells; on SRC) were ≤ 10 nM, ≤ 10 nM and 10 to 1000 nM, respectively.
`C=CC(=O)N1CCC(C#Cc2c(-c3ccc(Oc4ccccc4)cc3)c3c(N)ncnc3n2C(C)COC)CC1` (stereo not drawn) [Example I-57]: the IC50 (in test [1] (6 h); with RBE cells; at SRC) was 10 to 1000 nM in each case.
Consider `C=CC(=O)N1CC[C@@H](N2CC(C#Cc3c(-c4ccc(Cl)cc4)c4c(N)ncnc4n3CCOC)C2)[C@@H](O)C1` [II-54], for which the IC50 (in test [1]; in the test on RBE cells; on SRC) was 10 to 1000 nM throughout.
On to `C=CC(=O)N1CC[C@H](N2CC(C#Cc3c(-c4ccc(Oc5ccccc5)c(OC)c4)c4c(N)ncnc4n3C)C2)[C@H](O)C1` [II-247, 1-((3R,4S)-4-(3-((4-amino-5-(3-methoxy-4-phenoxyphenyl)-7-methyl-7H-pyrrolo[2,3-d]pyrimidin-6-yl)ethynyl)azetidin-1-yl)-3-hydroxypiperidin-1-yl)prop-2-en-1-one], for which the IC50 (in test [1] (6 h); in the test with RBE cells; at SRC) was ≤ 10 nM throughout.
With `C=CC(=O)N1CCC(N2CC(C#Cc3c(-c4ccccc4OC)c4c(N)ncnc4n3C)C2)CC1` [II-268], the IC50 in test [1] (6 h) is 1000 to 10000 nM; in the test on RBE cells, 1000 to 10000 nM; on SRC, 10 to 1000 nM.
For `C=CC(=O)N1CC[C@@H](N2CC(C#Cc3c(-c4ccc(Cl)c(F)c4)c4c(N)ncnc4n3C)C2)[C@@H](O)C1` [II-66], the IC50 (in test [1]; with RBE cells; at SRC) was 10 to 1000 nM each time.
Take `C=CC(=O)N1CC[C@H](N2CC(C#Cc3c(-c4ccc(Cl)c(OC)c4)c4c(N)ncnc4n3C)C2)[C@H](O)C1`: the IC50 in test [1] is 10 to 1000 nM; at SRC it was ≤ 10 nM.
In the case of `Cc1cccc(Oc2ccc(-c3c(C#C[C@@H]4[C@H]5CN(C(=O)/C=C/CN(C)C)C[C@@H]45)n(C)c4ncnc(N)c34)cc2)n1` [II-46], the IC50 in the test with RBE cells and at SRC was 10 to 1000 nM in each case.
As for `C=CC(=O)N1CCC(C#Cc2c(-c3ccc(Oc4ccccc4)cc3)c3c(N)ncnc3n2C2CC(O)C2)CC1` (stereo not drawn) [Example I-69], the IC50 with RBE cells and at SRC was 10 to 1000 nM throughout.
For the molecule `CC(C)n1c(C#CC2CCN(C(=O)/C=C/CN(C)C)CC2)c(-c2ccc(Oc3ccccc3)cc2)c2c(N)ncnc21` [Example I-48, (E)-1-(4-((4-amino-7-isopropyl-5-(4-phenoxyphenyl)-7H-pyrrolo[2,3-d]pyrimidin-6-yl)ethynyl)piperidin-1-yl)-4-(dimethylamino)but-2-en-1-one], the half-maximal inhibitory concentration (IC50) in the test on RBE cells and on SRC was 10 to 1000 nM throughout.
Consider `C=CC(=O)NC1CC(C#Cc2c(-c3ccc(Oc4ccccc4)cc3)c3c(N)ncnc3n2C2CCOC2)C1` (stereo not drawn) [Example I-71], for which the IC50 with RBE cells was ≤ 10 nM; on SRC it was 10 to 1000 nM.
For `C=CC(=O)N1CCC(C#Cc2c(-c3ccc(Oc4ccccc4)cc3)c3c(N)ncnc3n2C(C)C)CC1` [Example I-8, 1-(4-((4-amino-7-isopropyl-5-(4-phenoxyphenyl)-7H-pyrrolo[2,3-d]pyrimidin-6-yl)ethynyl)piperidin-1-yl)prop-2-en-1-one], the IC50 in the test with RBE cells and on SRC was 10 to 1000 nM throughout.
